From PubChem BioAssay AID1159559 (GlaxoSmithKline (GSK), 2015)
Activity calls are given as the source filed them.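 How the source made its calls: active means compounds whose IC50 against parasite growth in infected mouse cells is below 50000 nM; inactive means the rest.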

Test system: T. cruzi Tulahuen in NIH-3T3, beta-gal fluorescence, 4 d
Experiment: anti-Chagas amastigote proliferation inhibitors – cell-based (AID 1159559)

Structure (SMILES)	IC50
CC1CN(Cc2ccc(C#N)cc2)CCN1c1ccc(NC(=O)c2ccccc2F)cc1 (centres undefined)	25 µM
O=C(NCc1ccc(Cl)cc1)C1CN(C(=O)c2ccc(F)cc2)CCS1 (centres undefined)	25 µM
c1cc(-c2ncc(-c3ccn[nH]3)s2)ccn1	0.16 µM
O=S(=O)(NCC(c1cccnc1)N1CCN(c2ccc(F)cc2)CC1)c1cccs1 (centres undefined)	0.16 µM
Cc1ccc(C)c(-n2nnnc2Sc2nc([N+](=O)[O-])nn2C)c1	0.5 µM
O=C(O)[C@H]1C[C@@H]1c1ccc(-c2ccc(CN(CCc3ccccn3)C(=O)C3CCC3)cc2)cc1	> 50 µM (inactive)
COc1ccc(-c2nc3ccncc3c(=O)n2CCOc2ccccc2)cc1	0.63 µM
O=C(Nc1nc(-c2ccc(S(=O)(=O)N3CCOCC3)cc2)cs1)c1ccc([N+](=O)[O-])cc1	1 µM
Cc1cccnc1NC(=O)c1cccc(OCc2c(C)noc2C)c1	> 50 µM (inactive)
O=C(Nc1nc(-c2ccccn2)cs1)c1ccc(S(=O)(=O)N2CCCCC2)cc1	0.63 µM
CC(C)n1c(-c2nonc2N)nc2cccc(OCCN3CCCC3)c21	10 µM
CN(Cc1cccnc1)Cc1ccc(N2CCN(C(=O)C3(c4ccc(Cl)cc4)CC3)CC2)nc1	0.5 µM
CC(Cn1ccnc1)NC(=O)C1CC1c1cccc(Cl)c1Cl (centres undefined)	0.13 µM
CN(C)S(=O)(=O)c1cccc(C(=O)Nc2nc(-c3ccccn3)cs2)c1	1.3 µM
CC(C)CC(=O)NC(c1cccs1)c1ccc2cccnc2c1O (centres undefined)	1.6 µM
O=C(Cn1cnc2c(-c3ccccc3)csc2c1=O)N1CCCCC1	3.2 µM
CN(C)Cc1ccc(-c2ccc(S(=O)(=O)NCC3CCCO3)c(F)c2)cc1 (centres undefined)	1.3 µM
Cc1nn(-c2nc(N)nc(-c3ccccn3)n2)c(C)c1Cc1ccccc1	2.5 µM
COc1ccc2ncc(=O)n(CCN3CCOC(CNCc4ccc(C(F)(F)F)cc4F)C3)c2n1 (centres undefined)	0.4 µM
O=C1NCc2cccc(Nc3nc(NC4CCC(O)CC4)ncc3Br)c21 (centres undefined)	0.63 µM
COc1cccc2sc(CN(C)C(=O)C3CNCCN3c3ccc(F)cc3)c(C)c12 (centres undefined)	0.4 µM
Cc1nn(-c2ccccc2)nc1CNC(=O)CN(Cc1ccccn1)Cc1ccccn1	4 µM

Structure (SMILES)	IC50
O=C(NCC1CCCCC1)c1cc(=O)c2ccccc2o1	0.4 µM
Cc1ccccc1NS(=O)(=O)c1ccc2[nH]cc(C(=O)NC3CCCC3)c(=O)c2c1	25 µM
O=C(CN(Cc1ccccn1)Cc1ccccn1)NCc1csc(-c2cccs2)n1	4 µM
CN(C)CCN(C)Cc1ccc(Cl)cc1NS(=O)(=O)c1ccc(Cl)c(Cl)c1	1 µM
COc1cc(OC)cc(C(NS(=O)(=O)c2ccc(Cl)c(C(F)(F)F)c2)c2nccn2C)c1 (centres undefined)	4 µM
c1ccc(-c2nc(NCc3ccco3)c3ccccc3n2)nc1	6.3 µM
O=C(Nc1cccc(Cl)c1)Nc1ccc([N+](=O)[O-])cc1Cl	1.3 µM
Cc1ccc(NC(C)C(=O)Nc2ccc(C#N)cc2)cc1S(=O)(=O)N1CCCCC1 (centres undefined)	10 µM
OC1CCC(Nc2nccc(-c3sc(C4CCOCC4)nc3-c3ccc(F)c(F)c3)n2)CC1 (centres undefined)	0.32 µM
Cc1nc(-c2ccc3c(c2)OCO3)sc1C(=O)NCc1ccc2c(c1)OCO2	3.2 µM
O=c1[nH]cnc2c([C@@H]3O[C@H](CO)[C@@H](O)[C@H]3O)[nH]nc12	0.13 µM
COc1ccc(-c2csc(NC(=O)c3ccc([N+](=O)[O-])s3)n2)cc1OC	0.1 µM
c1ccc2[nH]c(-c3ccc(N4CCCC4)nc3)nc2c1	1 µM
O=C(Nc1ccccc1)Nc1nc(-c2ccccn2)cs1	0.63 µM
Cc1ccc(C)c(CN2C(=O)NC3(CCc4ccccc43)C2=O)c1 (centres undefined)	25 µM
CCOc1cnn(C)c(=O)c1Nc1ccc(C(=O)NCc2ccc(F)cc2)cc1	0.25 µM
Cc1ccc2sc(NC(=O)Cn3cnc([N+](=O)[O-])n3)nc2c1	1.3 µM
N#Cc1ccc(Br)cc1[N+](=O)[O-]	0.25 µM
COc1ccc(-c2cnc(NC(=O)c3cc(-c4ccccn4)n[nH]3)n2C)cc1	3.2 µM
CNc1c(C(N)=O)c(-c2ccc3scnc3c2)nn1CC(F)(F)F	0.13 µM
O=C(Nc1nc2ccccc2[nH]1)c1c(O)c2cccc3c2n(c1=O)CC3	20 µM
CN(C)S(=O)(=O)c1cccc(CSc2nnc(-c3ccc4c(c3)OCO4)o2)c1	0.5 µM

Structure (SMILES)	IC50
Cc1ccccc1OCC(=O)N1CCCN(c2cccnn2)CC1	0.32 µM
NC(=O)c1ccsc1NC(=O)c1ccc([N+](=O)[O-])s1	0.079 µM
COc1ccc(S(=O)(=O)NCc2ccc(-c3ccc(CN(C)CCO)cc3)cc2)cc1	0.04 µM
CCN(Cc1cccs1)C(=O)CSc1nnc(-c2ccc3c(c2)OCO3)o1	4 µM
CCOc1ccc(CC(=O)N2c3ccccc3CC2C(=O)NC)cc1 (centres undefined)	> 50 µM (inactive)
Cc1ccc2nc(N(Cc3cccnc3)C(=O)CCc3ccccc3)sc2c1	0.04 µM
COc1cccc(CN(C)Cc2nc(N)c3c(C)c(C)sc3n2)c1	6.3 µM
CC(C)(C)c1cc(NC2CC2)nc(-c2ccccn2)n1	1.3 µM
O=C(NNC(=O)c1ccccn1)c1ccc(-c2ccccc2)cc1	1.6 µM
O=c1cc(NCCCNCc2cc(C(F)(F)F)cs2)[nH]c2ccccc12	7.9 µM
Cc1c(C(C)NC(=O)Nc2cccc(Cl)c2)sc2ncnn12 (centres undefined)	0.13 µM
CC1(Oc2cncc(Cl)c2)CCN(Cc2cc3ccccc3[nH]2)C1 (centres undefined)	1 µM
CN(Cc1ccccc1)Cc1nnnn1C1CCN(Cc2ccc(-n3ccnc3)cc2)CC1	0.4 µM
O=C(CSc1nnc2ccc(-c3ccc(F)cc3)nn12)N1CCCCC1	2.5 µM
N#Cc1ccccc1S(=O)(=O)N1CCN(C(=O)CNC(=O)c2ccc3c(c2)OCO3)CC1	16 µM
O=C1CN(Cc2ccco2)C2CS(=O)(=O)CC2N1c1ccc(Cl)cc1 (centres undefined)	> 50 µM (inactive)
CS(=O)(=O)c1ccc(Nc2nccc(-c3cnn4ncccc34)n2)cc1	2 µM
CCCn1c(NC(=O)CCn2cc(Br)cn2)nc2ccccc21	5 µM
Cc1cccnc1CN1CCN(CCCOc2ccc(-c3ccc(C(N)=O)cc3)cc2)CC1	0.63 µM
O=C(Nc1nc(-c2ccc(F)cc2)cs1)c1ccc([N+](=O)[O-])s1	0.2 µM
NCc1csc(Nc2cc(Oc3ccccc3)ncn2)n1	32 µM
Cc1cc(Nc2cc(C3CC3)[nH]n2)nc(N2CCC[C@H]2C(N)=O)n1	0.13 µM

Structure (SMILES)	IC50
O=C(Nc1nc(-c2ccccn2)cs1)N1C[C@H]2C[C@@]2(c2ccccc2)C1	0.5 µM
CNc1nc(C)nc(N2CCc3cc(C(=O)NCc4ccc(-c5ccn[nH]5)cc4Cl)ccc32)n1	> 50 µM (inactive)
COc1cccc(-c2cc(C(F)(F)F)nc(-n3ccc([N+](=O)[O-])n3)n2)c1	0.4 µM
COc1ccc(Nc2nc(NC3CCC(O)CC3)ncc2Br)c(C(N)=O)c1 (centres undefined)	4 µM
N#Cc1ccc(C(=O)Nc2cccc(-c3cccc(CN4CCC(O)CC4)c3)c2)cc1	5 µM
CCCc1cc(N)nc(-c2cc(CCC)cc(N)n2)c1	2 µM
CC(C)(C)C(=O)Nc1cc(C2CC2)nn1-c1nc2c(c(=O)[nH]1)CCCC2	0.5 µM
COc1cccc(-c2c(C)nn(-c3nc(N)nc(-c4ccccn4)n3)c2N)c1	2.5 µM
CCCc1nc2nc(N)nc(N)c2cc1CC	0.32 µM
CC(=O)Nc1ccc(-c2cnc(N)c(-c3nc4ccc(F)cc4[nH]3)c2)cc1	0.63 µM
CNc1cncc(C2CCCN2C(=O)Cc2ccc3ccccc3c2)n1 (centres undefined)	0.079 µM
COc1ccc(OC)c(NC(=O)c2ccc([N+](=O)[O-])o2)c1	3.2 µM
COc1ccc(C(C)N(C)c2ncc3c(N)nc(N)nc3n2)cc1F (centres undefined)	0.079 µM
CC(C)(C)CC(=O)NCCc1csc(-c2ccc(F)cc2)n1	1.3 µM
CN1CCC(N(C)c2nccc(N3CCN(C(=O)c4cccc(-c5cccnc5)c4)CC3)n2)CC1	0.32 µM
O=C(COc1ncnc2cc([N+](=O)[O-])ccc12)NC(=O)NC1CCCCC1	1.3 µM
Cc1nc(N2CC(C)OC(C)C2)sc1C(=O)Nc1ccc2c(c1)OCO2 (centres undefined)	2 µM
Cn1nc([N+](=O)[O-])nc1Oc1ccc(C(=O)c2ccccc2)cc1	0.25 µM
O=C(NC1C(=O)N(c2ccccc2)C1c1cccnc1)c1ccc(Cl)s1 (centres undefined)	0.032 µM
CCN(Cc1ccncc1)Cc1ccc(NC(=O)c2cc(-c3ccc(F)cc3)n[nH]2)cc1	0.4 µM
CCN(CC)c1ccc(S(=O)(=O)N(CC)CC)c2nonc12	25 µM
CCc1nn(-c2ncc(F)c(NC(C)C)n2)c(N)c1C1CCCCC1	3.2 µM

Structure (SMILES)	IC50
Cc1nc(C(=O)Nc2ccc3c(c2)OCO3)nn1-c1ccc(Cl)cc1	6.3 µM
Cc1ccc(NC(=O)c2ccnc(N3CCCC3)c2)cc1-c1ccsc1C(N)=O	13 µM
CC(c1ccccn1)N(C)Cc1nc2ccccc2n1C(C)C (centres undefined)	1.6 µM
O=c1ccc2ccc(F)c3c2n1C[C@H]3CN1CCN(CC(O)c2cc3c(cn2)OCS3)CC1 (some centres undefined)	0.63 µM
CNC(=O)C1Cc2ccccc2N1C(=O)COc1cccc(OC)c1 (centres undefined)	> 50 µM (inactive)
Cc1ccccc1CNc1cc(C2CC2)nc(-c2nccn2C)n1	0.79 µM
Cc1cccc(N2CCCN(Cc3c[nH]c4ccccc34)CC2)n1	0.32 µM
CC(=O)NC1(c2ccccc2)CCN(CC(=O)Nc2ccccc2-c2ccccc2)CC1	1.3 µM
CNS(=O)(=O)c1ccccc1Nc1nc(Nc2ccnn2C)ncc1Cl	0.4 µM
CC(=Cc1ccccc1)CN1CCC(=O)N(Cc2cccnc2)CC1	0.25 µM
CCN(CC)S(=O)(=O)c1ccc(C(=O)Nc2cc(C)nn2-c2nc(C)c(C)c(=O)[nH]2)cc1	0.63 µM
COc1ccc2ncc(Cl)c(CCN3CC[C@@H](NCc4cc5c(cn4)OCS5)[C@H](O)C3)c2n1	0.13 µM
Cc1[nH]nc2c1C(c1ccc(OCc3ccccc3F)cc1)SCC(=O)N2 (centres undefined)	2 µM
O=C(CCCNC(=O)c1ccc(Cl)cc1)Nc1nc(-c2ccccn2)cs1	6.3 µM
CCn1c(-c2nonc2N)nc2c([C@@H](C)O)ncc(O[C@H](CN)c3ccccc3)c21	7.9 µM
CC(=O)Nc1ccc(-c2noc(CC3CCCN(Cc4cccc(F)c4C)C3)n2)cc1 (centres undefined)	1 µM
CCc1cc(C(=O)Nc2nccn2-c2ccccc2)cs1	3.2 µM
CC(C)CC(=O)Nc1cc(C2CC2)nn1-c1nc2c(c(=O)[nH]1)CCCC2	0.79 µM
Cc1cc(NC(=O)CC2CCCCC2)n(-c2nc3c(c(=O)[nH]2)CCC3)n1	0.25 µM
COCCn1cnc2cc(NC(=O)C3CCCCC3)cc(C(=O)N3CCc4sccc4C3)c21	20 µM
COc1ccc(CN(C)Cc2ccncc2)cc1-c1ccc(S(=O)(=O)NC2CCC2)s1	0.5 µM
